Biological target: T1, YOC-1 (Yokenella regensburgei, UniProt A0AB38FXT7)
T1 construct: gene C7387_3136; signal peptide (residues 1-22) removed; pCold I in E. coli BL21, N-terminal His tag removed by enterokinase
Assay: nitrocefin hydrolysis inhibition, spectrophotometric
Format: biochemical
Conditions: 100 μM nitrocefin; 5 min preincubation; 37°C

T1 sequence (A0AB38FXT7 entry or part of it): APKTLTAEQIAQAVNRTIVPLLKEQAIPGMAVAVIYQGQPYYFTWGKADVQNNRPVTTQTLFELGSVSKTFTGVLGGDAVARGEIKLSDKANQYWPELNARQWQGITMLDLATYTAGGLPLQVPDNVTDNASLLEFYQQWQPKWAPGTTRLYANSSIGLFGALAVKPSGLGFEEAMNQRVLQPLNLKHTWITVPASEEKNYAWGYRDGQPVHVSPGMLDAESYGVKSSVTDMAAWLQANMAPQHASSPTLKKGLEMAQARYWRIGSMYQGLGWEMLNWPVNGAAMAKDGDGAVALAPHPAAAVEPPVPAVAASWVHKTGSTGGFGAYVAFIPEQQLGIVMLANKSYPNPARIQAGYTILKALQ

SMILES | IC50 [µM]
O=C(O)[C@H]1/C(=C/CO)O[C@@H]2CC(=O)N21 [clavulanic acid] | 57.33 ± 0.03
NC(=O)[C@@H]1CC[C@@H]2CN1C(=O)N2OS(=O)(=O)O [avibactam] | 0.00117 ± 0.0002
Nc1nc2c(ncn2[C@@H]2O[C@H](COP(=O)(O)O)[C@@H](O)[C@H]2O)c(=O)[nH]1 [GMP] | 81.73 ± 0.02

From paper PMC7468467, “Characterization of a Novel Chromosomal Class C β-Lactamase, YOC-1, and Comparative Genomics Analysis of a Multidrug Resistance Plasmid in Yokenella regensburgei W13” (Frontiers in Microbiology, 2020)
